Source: patent US20080221115A1, “Use of long-chain alcohol derivatives for the treatment of alopecia areata” (priority 2007, published 2008)

Experiments:
[1] = tested on: alopecia greata in C3H/HeJ mice; conditions: for effective in treating the alopecia greata in C3H/HeJ mice: conclusion in words from Example 1; for Average score: hair amount and hair growth in biopsies from mustache, face, head, neck, back, stomach graded 1 (no hair) to 5 (full growth), averaged per group, day 93, negative control (PBS) 2.48; for Average score / Overall score: 25 mg/ml in PBS, topical; for Overall score: overall appearance graded on a scale of 1 (50% of mouse hairless) to 5 (full hair), group mean, 40 μl per cm^2 lesion, day 93 from the beginning of the treatment, negative control (PBS) 2.7
Description: The young mice will develop the disease subsequent to grafting.
Lesional grafts from old C3H/HeJ mice were grafted onto young C3H/HeJ mice. On day 30-40 post-graft the mice were randomized into groups with approximately the same degree of alopecia greata pathology.
Group 1: negative control, phosphate buffered saline (PBS).
Treatment was initiated on the day of randomization into groups. Mice were treated by providing 40 μl of solution per cm^2 lesion. The solution was evenly spread and was allowed to soak into the skin. Mice were observed twice weekly and the size of patches was measured and documented.
Treatment solutions were prepared freshly each day.
At the end of the study, skin biopsies were evaluated in a blinded manner. The hair amount and hair growth from biopsies from mice mustache, face, head, neck, back, and stomach were graded from 1 to 5. A rating of 1 represented no hair, and a rating of 5 represented full growth. These scores were calculated for each mouse and averaged, and the average for each group is shown below as “average score.”
In addition, the mice were graded based on their overall appearance on a scale of 1 to 5 for “overall score.”
Score 1=50% of mouse hairless.
Score 2=20-40% of mouse hairless.
Score 3=hairless patch covering up to 20% of mouse.
Score 4=thin hair, or local small hairless patch.
There were 7 mice in each of the test compound groups and 5 mice in the negative control group.
The scoring occurred on day 93 from the beginning of the treatment.

[2] = tested on: delayed-type hypersensitivity model in mice; conditions: disclosed in WO 2004/032824; cited from earlier work
[3] = tested on: EAE model in rats; conditions: disclosed in WO 2004/032824; cited from earlier work

Compound	effective in treating the alopecia greata in C3H/HeJ mice [1]	Average score [1]	Overall score [1]	results in a delayed-type hypersensitivity model in mice [2]	results in an EAE model in rats [3]
CCCCCCCC/C=C\CCCCCCCCOC(=O)C(N)c1ccccc1.Cl (stereo not drawn) [compound 1, amino-phenyl-acetic acid octadec-(Z)-9-enyl ester HCl]	effective	3.11	3.5	positive results	
CCCCCCCC/C=C\CCCCCCCCOC(=O)CN1CCNCC1.O=C(O)C(O)C(O)C(=O)O [compound 2]	effective	2.91	3.5	positive results	positive results
